Assay results reported in patent publication US6605641B2, “20-HETE antagonists and agonists” (MCW Research Foundation, priority 1998, dated 2003).
“Also recorded” adds a separate entry of the source.

Experiments:
[1] = test system: isolated, pressured rat renal interlobular arteries; assay: Isolated vessel studies: vasoconstrictor response (vascular diameter) to cumulative doses of 20-HETE analogs; format: cell-based; conditions: 10^−8 to 10^−6 M (up to 1 μM), indomethacin, baicalein, 17-ODYA present, diameter 2 to 3 minutes after addition
Procedure: General. Experiments were performed on 10 to 12-week old male Sprague-Dawley rats purchased from Harlan Sprague-Dawley Laboratories (Indianapolis, Ind.). The rats were housed in the animal care facility at the Medical College of Wisconsin, which is approved by the American Association for the Accreditation of Laboratory Animal Care. The animals had free access to food and water. All protocols involving animals received approval by the Animal Care Committee of the Medical College of Wisconsin.
(§1) Isolated vessel studies. Interlobular arterioles (70-120 μm inner diameter) were microdissected from the kidneys of rats. The vessels were mounted on glass micropipettes in a perfusion chamber containing physiological saline solution equilibrated with a 95% O2-5% CO2 gas mixture and maintained at 37° C. The vessel were secured to the pipettes and side branches were tied off with 10-0 silk suture. The inflow pipette was connected to a pressurized reservoir to control of intraluminal perfusion pressure, which was monitored using a transducer (Cobe, Lakewood, Colo.). The vessels were stretched to in vivo length measured before microdissection. The outflow cannula was clamped off and intraluminal pressure was maintained at 90 mm Hg during the experiment. Vascular diameters were measured with a video system composed of a stereo microscope (Carl Zeiss, Inc., Germany), a CCTV television camera (KP-130AU, Hitachi, Japan), a videocassette recorder (AG-7300, Panasonic, Japan), a television monitor (CVM-1271, Sony, Japan), and a video measuring system (VIA-100, Boeckeler Instrument Co., Tucson, Ariz.).
(§2) The composition of the perfusate and the bath was (in mM): 119 NaCl, 4.7 KCl, 1.17 MgSO4, 1.6 CaCl2, 12 NaHCO3, 1.18 NaH2PO4, 0.03 EDTA and 10 glucose, pH 7.4. Indomethacin (5 μM), baicalein (0.5 μM) and 17-ODYA (1 μM) were added to the bath to block the endogenous formation and metabolism of eicosanoids via the cyclooxygenase, lipoxygenase and cytochrome P450 pathways. After the equilibration period, cumulative dose response curves were generated for each of the 20-HETE analogs.
Effect of the position of the hydroxyl group on the vasoconstrictor response to 20-HETE. These experiments examined the effects of increasing concentrations of 5(S)-, 8(S)-, 12(S)-, 15(S)-, and 19(S)-HETE on the diameter of isolated, pressured rat renal interlobular arteries. All of these analogs have the same number of carbons, double bonds and molecular weight as 20-HETE (FIG. 1). The major difference between these compounds and 20-HETE is the position of the OH group along the carbon chain. Additional experiments were performed with arachidonic acid and 20-carboxyarachidonic acid, which are structurally similar to 20-HETE but lack a hydroxyl group on the 20th carbon and 20-hydroxyeicosa-6, 15-dienoic acid (reverse 20-HETE) which has the carboxy- and hydroxy-moieties on the 1st and 20th carbons reversed. Cumulative dose response curves were generated for each compound (10^−8 to 10^−6 M) in the presence of indomethacin, baicalein, and 17-ODYA. Vascular diameters were recorded 2 to 3 minutes after the addition of the compounds to the bath.
Effect of the double bonds and carbon chain length to the vasoconstrictor response to 20-HETE. We next examined the importance of the double bonds and the length of the carbon chain to the vasoconstrictor response to 20-HETE. In these studies, the double bonds in the 20-HETE molecule were removed creating partial and saturated 20-HETE derivatives (20-hydroxyeicosa-6(Z),15(Z) dienoic acid; 20-hydroxyeicosanoic acid, FIG. 1). 20-HETE was also shortened by one carbon, creating a 19-carbon analog (19-hydroxynonadeca-5(Z),8(Z),11(Z),14(Z)-tetraenoic acid, FIG. 1) and double bonds were removed, creating a saturated 19-carbon analog (19 hydroxynonadecanoic acid, FIG. 1). […]

[2] = test system: vasoconstrictor response to 20-HETE in isolated renal interlobular arteries; assay: 20-HETE antagonist activity: dose response curves to 20-HETE before and after addition of analog; format: cell-based, rat; conditions: for effect of analog on the vasoconstrictor response to 20-HETE (antagonist activity): analog 0.5 or 1 μM in bath, 20-HETE 10^−8 to 10^−6 M; for reduction of the vasoconstrictor response to 20-HETE: analog 1 μM in bath, for arachidonic acid response to 1 μM 20-HETE
Procedure: We also disclose below a test for 20-HETE antagonist activity. In this analysis, test compounds were analyzed by a cumulative dose response curve to 20-HETE generated before and after the addition of the test compound. […] We envision suitable antagonists as similarly blocking the vasoconstrictor response.
as §1, §2
20-HETE antagonist activity. […] In these experiments, cumulative dose response curves to 20-HETE (10^−8 to 10^−6 M) were generated before and after addition of 5(S)-HETE (0.5 μM), 8(S)-HETE (1 μM), 12(S)-HETE (0.5 μM), 15(S)-HETE (1 μM), 19(S)-HETE (1 μM), the C19-analog (1 μM), arachidonic acid (1 μM), 20-carboxy-arachidonic acid (1 μM), reverse 20-HETE (1 μM), saturated 20-HETE (1 μM), and the saturated C19-analog (1 μM) to the bath. Vascular diameters were recorded 2 to 3 minutes after the addition of each dose of 20-HETE to the bath.

CCCCC/C=C\C/C=C\C/C=C\C=C\[C@@H](O)CCCC(=O)O [5(S)-HETE]
effect on the diameter of renal interlobular arteries (vasoconstrictor/agonist activity) [1]: no significant effect
effect on the diameter of renal interlobular arteries (vasoconstrictor/agonist activity) ([1]; listed as 5-HETE): no effect
effect of analog on the vasoconstrictor response to 20-HETE (antagonist activity) ([2]; listed as 5-HETE): completely blocked; also recorded: very effective antagonists; also recorded: blocked the vasoconstrictor response to 20-HETE

CCCCC/C=C\C/C=C\C=C\[C@@H](O)C/C=C\CCCC(=O)O [8(S)-HETE]
effect on the diameter of renal interlobular arteries (vasoconstrictor/agonist activity) [1]: no significant effect
effect on the diameter of renal interlobular arteries (vasoconstrictor/agonist activity) ([1]; listed as 8-HETE): no effect
effect of analog on the vasoconstrictor response to 20-HETE (antagonist activity) [2]: no significant effect
effect of analog on the vasoconstrictor response to 20-HETE (antagonist activity) ([2]; listed as 8-HETE): did not antagonize

CCCCC/C=C\C[C@H](O)/C=C/C=C\C/C=C\CCCC(=O)O [12(S)-HETE]
effect on the diameter of renal interlobular arteries (vasoconstrictor/agonist activity) [1]: no significant effect
effect on the diameter of renal interlobular arteries (vasoconstrictor/agonist activity) ([1]; listed as 12-HETE): no effect
effect of analog on the vasoconstrictor response to 20-HETE (antagonist activity) [2]: no significant effect
effect of analog on the vasoconstrictor response to 20-HETE (antagonist activity) ([2]; listed as 12-HETE): did not antagonize

CCCCC[C@H](O)/C=C/C=C\C/C=C\C/C=C\CCCC(=O)O [15(S)-HETE]
effect on the diameter of renal interlobular arteries (vasoconstrictor/agonist activity) [1]: no significant effect
effect on the diameter of renal interlobular arteries (vasoconstrictor/agonist activity) ([1]; listed as 15-HETE): no effect
effect of analog on the vasoconstrictor response to 20-HETE (antagonist activity) ([2]; listed as 15-HETE): completely blocked; also recorded: very effective antagonists; also recorded: blocked the vasoconstrictor response to 20-HETE

C[C@H](O)CCC/C=C\C/C=C\C/C=C\C/C=C\CCCC(=O)O [19(S)-HETE]
effect on the diameter of renal interlobular arteries (vasoconstrictor/agonist activity) [1]: no significant effect
effect on the diameter of renal interlobular arteries (vasoconstrictor/agonist activity) ([1]; listed as 19-HETE): no effect
effect of analog on the vasoconstrictor response to 20-HETE (antagonist activity) ([2]; listed as 19-HETE): completely eliminated the response to 20-HETE; also recorded: very effective antagonists

O=C(O)CCCC/C=C\CCCCCCC/C=C\CCCCO [20-Hydroxyeicosa-6(Z),15(Z)-dienoic Acid]
effect on the diameter of renal interlobular arteries (vasoconstrictor/agonist activity) [1]: eliminated agonist activity
effect of analog on the vasoconstrictor response to 20-HETE (antagonist activity) [2]: completely blocked
effect of analog on the vasoconstrictor response to 20-HETE (antagonist activity) ([2]; listed as partially saturated reverse 20-HETE): completely eliminated the response to 20-HETE

O=C(O)CCC/C=C\C/C=C\C/C=C\C/C=C\CCCCCCO [21-HETE, 21-Hydroxyheneicosa-5(Z),8(Z),11(Z),14(Z)-tetraenoic Acid]
effect on the diameter of renal interlobular arteries (vasoconstrictor/agonist activity) [1]: just as potent constrictors as 20-HETE
effect on the diameter of renal interlobular arteries (vasoconstrictor/agonist activity) ([1]; listed as 21-carbon derivative): just as potent vasoconstrictors as 20-HETE

O=C(O)CCC/C=C\C/C=C\C/C=C\C/C=C\CCCCO [C19-analog, 19-Hydroxynonadeca-5(Z),8(Z),11(Z),14(Z)-tetraenoic Acid]
effect on the diameter of renal interlobular arteries (vasoconstrictor/agonist activity) ([1]; listed as 19-carbon analog of 20-HETE): no significant effect
effect on the diameter of renal interlobular arteries (vasoconstrictor/agonist activity) ([1]; listed as 19-carbon derivative of 20-HETE): no effect
effect of analog on the vasoconstrictor response to 20-HETE (antagonist activity) [2]: completely eliminated the response to 20-HETE
effect of analog on the vasoconstrictor response to 20-HETE (antagonist activity) ([2]; listed as C19 analog): very effective antagonists

CCCCC/C=C\C/C=C\C/C=C\C/C=C\CCCC(=O)O [arachidonic acid]
effect on the diameter of renal interlobular arteries (vasoconstrictor/agonist activity) [1]: no significant effect; also recorded: does not constrict
reduction of the vasoconstrictor response to 20-HETE [2]: 50%
effect of analog on the vasoconstrictor response to 20-HETE (antagonist activity) [2]: very effective antagonists

CC(C)(O)CCCCC=CCC=CCC=CCC=CCCCC(=O)O [dimethyl 20-HETE, 20,20-Dimethyl-20-HETE]
effect on the diameter of renal interlobular arteries (vasoconstrictor/agonist activity) [1]: just as potent constrictors as 20-HETE
effect on the diameter of renal interlobular arteries (vasoconstrictor/agonist activity) ([1]; listed as dimethyl derivative): just as potent vasoconstrictors as 20-HETE

O=C(O)CCC/C=C\CCCCCCC/C=C\CCCCCO [partially saturated 20-HETE derivative, 20-Hydroxyeicosa-5(Z),14(Z)-dienoic Acid]
effect on the diameter of renal interlobular arteries (vasoconstrictor/agonist activity) [1]: potent a constrictor as 20-HETE
effect on the diameter of renal interlobular arteries (vasoconstrictor/agonist activity) ([1]; listed as partially saturated analog): retained vasoconstrictor activity

O=C(O)CCCCCCCCCCCCCCCCCCO [saturated 19-carbon analog, 19-Hydroxynonadecanoic Acid]
reduction of the vasoconstrictor response to 20-HETE [2]: about 50%
effect of analog on the vasoconstrictor response to 20-HETE (antagonist activity) [2]: not as effective as the parent compounds

Eicosatetraen-1,20-dioic Acid [20-carboxy-arachidonic acid]
effect on the diameter of renal interlobular arteries (vasoconstrictor/agonist activity) [1]: no significant effect
effect of analog on the vasoconstrictor response to 20-HETE (antagonist activity) [2]: no significant antagonistic properties
